From ChEMBL document CHEMBL1201862, “PubChem BioAssay data set” (2004)
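Each compound was tested at five concentrations against cells in 96-well plates for 48 hours. GI50: concentration for 50% inhibition of growth.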 Active and inactive are the calls of the source. Cut-off read from the data, not from the text of the source: active = GI50 up to about 1.1 µM and inactive = higher. Where a SMILES comes first, the peptide text is derived from it. [ ]: non-standard residue; d: D form. Phe(4-NO2) = N[CH](Cc1ccc([N+](=O)[O-])cc1)C(=O)O

What was measured:
Assay in all cases: DTP human tumour cell line panel, 48 h
SK-MEL-28 = test system: SK-MEL-28
MDA-MB-231 = test system: MDA-MB-231
RPMI-8226 = test system: RPMI-8226
M14 = test system: M14
HOP-62 = test system: HOP-62
HL-60 = test system: HL-60
SW-620 = test system: SW-620
MDA-N = test system: MDA-N
NCI-H226 = test system: NCI-H226
RXF 393 = test system: RXF 393
UACC-257 = test system: UACC-257
Malme-3M = test system: Malme-3M
COLO 205 = test system: COLO 205
LOX IMVI = test system: LOX IMVI
K562 = test system: K562
DU-145 = test system: DU-145
EKVX = test system: EKVX
Hs-578T = test system: Hs-578T
NCI-H460 = test system: NCI-H460

SMILES	GI50 (SK-MEL-28)	GI50 (MDA-MB-231)	GI50 (RPMI-8226)	GI50 (M14)	GI50 (HOP-62)	GI50 (HL-60)	GI50 (SW-620)	GI50 (MDA-N)	GI50 (NCI-H226)	GI50 (RXF 393)	GI50 (UACC-257)	GI50 (Malme-3M)	GI50 (COLO 205)	GI50 (LOX IMVI)	GI50 (K562)	GI50 (DU-145)	GI50 (EKVX)	GI50 (Hs-578T)	GI50 (NCI-H460)
COc1ccc(C2=Nc3c(nc(SC)[nH]c3=O)NC(c3ccccc3)C2)cc1 (configuration not stated)	> 10 µM (inactive)	14.3 µM (inactive)	27.2 µM (inactive)	25.4 µM (inactive)	35.4 µM (inactive)	18.1 µM (inactive)	44.9 µM (inactive)	16.9 µM (inactive)	26.2 µM (inactive)	20.7 µM (inactive)	22.9 µM (inactive)	37.1 µM (inactive)	19.6 µM (inactive)	30.5 µM (inactive)	25.1 µM (inactive)	25.2 µM (inactive)	24.4 µM (inactive)		
NC(=S)N/N=C/C1NCCC2CCCCC21 (configuration not stated)	2.38 µM (inactive)	1.12 µM (active)	0.279 µM (active)	0.17 µM (active)	0.0938 µM (active)	0.291 µM (active)	0.568 µM (active)		0.314 µM (active)	2.43 µM (inactive)	0.601 µM (active)	0.254 µM (active)	0.373 µM (active)	0.221 µM (active)	0.617 µM (active)	0.173 µM (active)	0.611 µM (active)	1.15 µM (inactive)	0.231 µM (active)
Sc1nn2c(COc3ccc(Cl)cc3)nnc2s1	> 100 µM (inactive)	> 100 µM (inactive)	> 100 µM (inactive)	> 100 µM (inactive)	> 100 µM (inactive)	> 100 µM (inactive)	> 100 µM (inactive)		> 100 µM (inactive)	> 100 µM (inactive)	> 100 µM (inactive)	> 100 µM (inactive)	> 100 µM (inactive)		> 100 µM (inactive)	> 100 µM (inactive)	> 100 µM (inactive)		> 100 µM (inactive)
COC(=O)C(=O)C(C(=O)C(=O)Nc1ccc(Cl)cc1Cl)c1nc2ccc(Cl)cc2nc1O (configuration not stated)	> 100 µM (inactive)	> 100 µM (inactive)		> 100 µM (inactive)	> 100 µM (inactive)	> 100 µM (inactive)	> 100 µM (inactive)		49 µM (inactive)		> 100 µM (inactive)		> 100 µM (inactive)	> 100 µM (inactive)		> 100 µM (inactive)	17.1 µM (inactive)	> 100 µM (inactive)	> 100 µM (inactive)
Nc1ccc2c(c1)NCCN2	> 100 µM (inactive)	> 100 µM (inactive)	70.1 µM (inactive)	73.1 µM (inactive)	> 100 µM (inactive)	9.71 µM (inactive)			7.8 µM (inactive)	> 100 µM (inactive)	82 µM (inactive)	51.4 µM (inactive)	9.66 µM (inactive)	8.05 µM (inactive)	18.3 µM (inactive)	25.7 µM (inactive)	54.1 µM (inactive)	7.76 µM (inactive)	4.39 µM (inactive)
Cc1cc(C)cc(Nc2nnc3n2S(=O)(=O)c2cc(C#N)c(Cl)cc2S3)c1	3.21 µM (inactive)	3.13 µM (inactive)		5.57 µM (inactive)	2.77 µM (inactive)	1.68 µM (inactive)	2.39 µM (inactive)		10.6 µM (inactive)	1.59 µM (inactive)	1.44 µM (inactive)	1.13 µM (inactive)	10.9 µM (inactive)	2.89 µM (inactive)	1.47 µM (inactive)	3.14 µM (inactive)	8.67 µM (inactive)	2.68 µM (inactive)	3.14 µM (inactive)
O=C(N=C1N(c2ccccc2)C(=O)C(=O)N1c1ccccc1)c1ccccc1	17.5 µM (inactive)	6.9 µM (inactive)	13.8 µM (inactive)		11.5 µM (inactive)	31.2 µM (inactive)	13.1 µM (inactive)		12 µM (inactive)	3.58 µM (inactive)	29.9 µM (inactive)	17.4 µM (inactive)	13.9 µM (inactive)	3.78 µM (inactive)	29.2 µM (inactive)	6.7 µM (inactive)	12.7 µM (inactive)	4.65 µM (inactive)	11.7 µM (inactive)
CSC1SCC2C(=O)N(C)C3(CC3C)C(=O)OCC(NC(=O)c3nc4ccccc4cc3O)C(=O)NC(C)C(=O)N(C)C1C(=O)N(C)C1(CC1C)C(=O)OCC(NC(=O)c1nc3ccccc3cc1O)C(=O)NC(C)C(=O)N2C (configuration not stated)	< 0.0001 µM (active)	< 0.0001 µM (active)	< 0.0001 µM (active)	< 0.0001 µM (active)	< 0.0001 µM (active)	< 0.0001 µM (active)	< 0.0001 µM (active)		< 0.0001 µM (active)	< 0.0001 µM (active)	0.1 µM (active)	< 0.0001 µM (active)	< 0.0001 µM (active)	< 0.0001 µM (active)	< 0.0001 µM (active)	< 0.0001 µM (active)	0.1 µM (active)	< 0.0001 µM (active)	< 0.0001 µM (active)
C/C(=N\NS(=O)(=O)c1ccc(C)cc1)c1ccccn1	98.2 µM (inactive)	> 100 µM (inactive)	> 100 µM (inactive)	34.6 µM (inactive)	62.2 µM (inactive)	34 µM (inactive)	> 100 µM (inactive)		32.9 µM (inactive)	> 100 µM (inactive)	81.8 µM (inactive)	60.3 µM (inactive)	32.7 µM (inactive)	55.6 µM (inactive)	83.8 µM (inactive)	> 100 µM (inactive)	35.5 µM (inactive)	87.3 µM (inactive)	49.7 µM (inactive)
Nc1ccccc1-c1noc(=O)[nH]1	> 100 µM (inactive)	> 100 µM (inactive)	> 100 µM (inactive)	> 100 µM (inactive)	> 100 µM (inactive)		> 100 µM (inactive)		> 100 µM (inactive)	> 100 µM (inactive)	> 100 µM (inactive)		> 100 µM (inactive)	> 100 µM (inactive)	> 100 µM (inactive)	> 100 µM (inactive)	> 100 µM (inactive)	> 100 µM (inactive)	
Nc1nc(Cl)cc(NCC2(CO)CC(=O)C2)n1	> 100 µM (inactive)	> 100 µM (inactive)	> 100 µM (inactive)		> 100 µM (inactive)	> 100 µM (inactive)	> 100 µM (inactive)		> 100 µM (inactive)	> 100 µM (inactive)	> 100 µM (inactive)	> 100 µM (inactive)	> 100 µM (inactive)	> 100 µM (inactive)	> 100 µM (inactive)	> 100 µM (inactive)	98.6 µM (inactive)	> 100 µM (inactive)	> 100 µM (inactive)
CC(NC(=O)C(Cc1ccc([N+](=O)[O-])cc1)NC(=O)C(N)CCCCN)C(=O)NC(Cc1ccc([N+](=O)[O-])cc1)C(N)=O (configuration not stated) (H-K[Phe(4-NO2)]A[Phe(4-NO2)]-NH2; configuration not given here)	75.7 µM (inactive)	39.6 µM (inactive)	29.2 µM (inactive)	> 50.5 µM (inactive)	11.7 µM (inactive)	18.7 µM (inactive)	27.2 µM (inactive)		98.9 µM (inactive)	39.2 µM (inactive)	> 68.2 µM (inactive)	50.8 µM (inactive)	> 52.7 µM (inactive)	> 100 µM (inactive)	> 20.5 µM (inactive)	53.5 µM (inactive)	> 71.4 µM (inactive)	> 68.7 µM (inactive)	20.6 µM (inactive)
